According to PubChem BioAssay (NCI):
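Results reflect a 48-hour exposure of cells in 96-well plates to compound at five concentrations. The concentration for full growth arrest is given as TGI.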

How the values were obtained:
Assay in all cases: DTP human tumour cell line panel, 48 h
SR leukemia = system: SR leukemia
HOP-62 NSCLC = system: HOP-62 NSCLC
RXF 393 renal = system: RXF 393 renal
MOLT-4 leukemia = system: MOLT-4 leukemia
IGROV1 ovarian = system: IGROV1 ovarian
OVCAR-3 ovarian = system: OVCAR-3 ovarian
DLD-1 colon = system: DLD-1 colon
CAKI-1 renal = system: CAKI-1 renal
LXFL 529 NSCLC = system: LXFL 529 NSCLC
K-562 leukemia = system: K-562 leukemia
U251 CNS = system: U251 CNS
SNB-75 CNS = system: SNB-75 CNS
M14 melanoma = system: M14 melanoma
COLO 205 colon = system: COLO 205 colon
NCI-H226 lung = system: NCI-H226 lung
SNB-78 CNS = system: SNB-78 CNS
SN12C renal = system: SN12C renal
HCT-15 colon = system: HCT-15 colon
TK-10 renal = system: TK-10 renal
UACC-62 melanoma = system: UACC-62 melanoma
DMS 273 small cell lung = system: DMS 273 small cell lung
SF-268 CNS = system: SF-268 CNS
SK-MEL-28 melanoma = system: SK-MEL-28 melanoma
UO-31 renal = system: UO-31 renal
786-0 renal = system: 786-0 renal
DMS 114 small cell lung = system: DMS 114 small cell lung
HOP-18 NSCLC = system: HOP-18 NSCLC
SW-620 colon = system: SW-620 colon
NCI-H23 lung = system: NCI-H23 lung
MALME-3M melanoma = system: MALME-3M melanoma
ACHN renal = system: ACHN renal
HCC-2998 colon = system: HCC-2998 colon
XF 498 CNS = system: XF 498 CNS
SNB-19 CNS = system: SNB-19 CNS
OVCAR-5 ovarian = system: OVCAR-5 ovarian
SF-539 CNS = system: SF-539 CNS
OVCAR-4 ovarian = system: OVCAR-4 ovarian
SK-MEL-2 melanoma = system: SK-MEL-2 melanoma
SF-295 CNS = system: SF-295 CNS
LOX IMVI melanoma = system: LOX IMVI melanoma
HCT-116 colon = system: HCT-116 colon
A498 renal = system: A498 renal
NCI-H460 lung = system: NCI-H460 lung
UACC-257 melanoma = system: UACC-257 melanoma
KM20L2 colon = system: KM20L2 colon
HT29 colon = system: HT29 colon
KM12 colon = system: KM12 colon
EKVX NSCLC = system: EKVX NSCLC
A549 NSCLC = system: A549 NSCLC
RPMI-8226 leukemia = system: RPMI-8226 leukemia
OVCAR-8 ovarian = system: OVCAR-8 ovarian
NCI-H522 lung = system: NCI-H522 lung
SK-MEL-5 melanoma = system: SK-MEL-5 melanoma
CCRF-CEM leukemia = system: CCRF-CEM leukemia
HL-60(TB) leukemia = system: HL-60(TB) leukemia
M19-MEL melanoma = system: M19-MEL melanoma
SK-OV-3 ovarian = system: SK-OV-3 ovarian
HOP-92 NSCLC = system: HOP-92 NSCLC

## O=C(c1ccccc1)c1ccc2cccc(OC3OC(CO)C(O)C(O)C3O)c2n1 (centres undefined)
SR leukemia
  TGI: > 100 µM
HOP-62 NSCLC
  TGI: > 100 µM
RXF 393 renal
  TGI: > 100 µM
MOLT-4 leukemia
  TGI: > 100 µM
IGROV1 ovarian
  TGI: > 100 µM
OVCAR-3 ovarian
  TGI: > 100 µM
DLD-1 colon
  TGI: > 100 µM
CAKI-1 renal
  TGI: > 100 µM
LXFL 529 NSCLC
  TGI: > 100 µM
K-562 leukemia
  TGI: > 100 µM
U251 CNS
  TGI: > 100 µM
SNB-75 CNS
  TGI: > 100 µM
M14 melanoma
  TGI: > 100 µM
COLO 205 colon
  TGI: > 100 µM
NCI-H226 lung
  TGI: > 100 µM
SNB-78 CNS
  TGI: > 100 µM
SN12C renal
  TGI: > 100 µM
HCT-15 colon
  TGI: > 100 µM
TK-10 renal
  TGI: > 100 µM
UACC-62 melanoma
  TGI: > 100 µM
DMS 273 small cell lung
  TGI: > 100 µM
SF-268 CNS
  TGI: > 100 µM
SK-MEL-28 melanoma
  TGI: > 100 µM
UO-31 renal
  TGI: > 100 µM
786-0 renal
  TGI: > 100 µM
DMS 114 small cell lung
  TGI: > 100 µM
HOP-18 NSCLC
  TGI: > 100 µM
SW-620 colon
  TGI: > 100 µM
NCI-H23 lung
  TGI: > 100 µM
MALME-3M melanoma
  TGI: > 100 µM
ACHN renal
  TGI: > 100 µM
HCC-2998 colon
  TGI: > 100 µM
XF 498 CNS
  TGI: > 100 µM
SNB-19 CNS
  TGI: > 100 µM
OVCAR-5 ovarian
  TGI: > 100 µM
SF-539 CNS
  TGI: > 100 µM
OVCAR-4 ovarian
  TGI: > 100 µM
SK-MEL-2 melanoma
  TGI: > 100 µM
SF-295 CNS
  TGI: > 100 µM
LOX IMVI melanoma
  TGI: > 100 µM
HCT-116 colon
  TGI: > 100 µM
A498 renal
  TGI: 82 µM
NCI-H460 lung
  TGI: > 100 µM
UACC-257 melanoma
  TGI: > 100 µM
KM20L2 colon
  TGI: > 100 µM
HT29 colon
  TGI: > 100 µM
KM12 colon
  TGI: > 100 µM
EKVX NSCLC
  TGI: > 100 µM
A549 NSCLC
  TGI: > 100 µM
RPMI-8226 leukemia
  TGI: > 100 µM
OVCAR-8 ovarian
  TGI: > 100 µM
NCI-H522 lung
  TGI: > 100 µM
SK-MEL-5 melanoma
  TGI: > 100 µM

## Cc1cccc(C)c1NC(=O)C(=O)C(C#N)c1ccccc1 (centres undefined)
HOP-62 NSCLC
  TGI: > 100 µM
RXF 393 renal
  TGI: > 100 µM
MOLT-4 leukemia
  TGI: > 100 µM
IGROV1 ovarian
  TGI: > 100 µM
OVCAR-3 ovarian
  TGI: > 100 µM
DLD-1 colon
  TGI: > 100 µM
CCRF-CEM leukemia
  TGI: > 100 µM
CAKI-1 renal
  TGI: > 100 µM
LXFL 529 NSCLC
  TGI: > 100 µM
K-562 leukemia
  TGI: > 100 µM
U251 CNS
  TGI: > 100 µM
SNB-75 CNS
  TGI: > 100 µM
M14 melanoma
  TGI: > 100 µM
COLO 205 colon
  TGI: > 100 µM
NCI-H226 lung
  TGI: > 100 µM
SNB-78 CNS
  TGI: > 100 µM
SN12C renal
  TGI: > 100 µM
HCT-15 colon
  TGI: > 100 µM
TK-10 renal
  TGI: > 100 µM
UACC-62 melanoma
  TGI: > 100 µM
DMS 273 small cell lung
  TGI: > 100 µM
HL-60(TB) leukemia
  TGI: > 100 µM
SF-268 CNS
  TGI: > 100 µM
M19-MEL melanoma
  TGI: > 100 µM
SK-MEL-28 melanoma
  TGI: > 100 µM
UO-31 renal
  TGI: > 100 µM
786-0 renal
  TGI: > 100 µM
DMS 114 small cell lung
  TGI: > 100 µM
HOP-18 NSCLC
  TGI: > 100 µM
SW-620 colon
  TGI: > 100 µM
NCI-H23 lung
  TGI: > 100 µM
MALME-3M melanoma
  TGI: > 100 µM
ACHN renal
  TGI: > 100 µM
HCC-2998 colon
  TGI: > 100 µM
SK-OV-3 ovarian
  TGI: > 100 µM
XF 498 CNS
  TGI: > 100 µM
HOP-92 NSCLC
  TGI: > 100 µM
SNB-19 CNS
  TGI: > 100 µM
OVCAR-5 ovarian
  TGI: > 100 µM
SF-539 CNS
  TGI: > 100 µM
OVCAR-4 ovarian
  TGI: > 100 µM
SK-MEL-2 melanoma
  TGI: > 100 µM
SF-295 CNS
  TGI: > 100 µM
LOX IMVI melanoma
  TGI: > 100 µM
HCT-116 colon
  TGI: > 100 µM
A498 renal
  TGI: > 100 µM
NCI-H460 lung
  TGI: > 100 µM
UACC-257 melanoma
  TGI: > 100 µM
KM20L2 colon
  TGI: > 100 µM
HT29 colon
  TGI: > 100 µM
KM12 colon
  TGI: > 100 µM
EKVX NSCLC
  TGI: > 100 µM
A549 NSCLC
  TGI: > 100 µM
OVCAR-8 ovarian
  TGI: > 100 µM
NCI-H522 lung
  TGI: > 100 µM
SK-MEL-5 melanoma
  TGI: > 100 µM
